Values quoted from earlier work as cited in patent US20230233697A1, “CYTOTOXIC BENZODIAZEPINE DERIVATIVES” (priority 2014, published 2023).

Conditions: Phase I clinical evaluation; cited from earlier work

In the case of `C=C1C[C@H]2C=Nc3cc(OCCCOc4cc5c(cc4OC)C(=O)N4CC(=C)C[C@H]4C=N5)c(OC)cc3C(=O)N2C1` [SJG-136], the maximum tolerated dose is given as 45 μg/m^2.
